# From patent publication US9499511B2, “N-substituted hydroxylamine derivatives with carbon-based leaving groups” (The Johns Hopkins University, priority 2011, dated 2016)
# Structures can show the parent of a compound that is named as a salt.
# Columns and labels:
# [1] = Decomposition monitored by 1H NMR spectroscopy (carbanion yield, kinetics, half-life); type: physicochemical; details: 10% D2O
# Text: […] In each case, the bottom spectrum was collected at the start of the experiment, and the top spectrum after complete decomposition.
# NMR spectra were obtained on a Bruker Avance 400 MHz FT-NMR spectrometer. […] High-resolution mass spectra were obtained on a VG Analytical VG70SE magnetic sector mass spectrometer operating in fast atom bombardment (FAB) mode. […]
# [2] = N2O headspace analysis (GC) of HNO production, relative to Angeli's salt; type: physicochemical; details: for HNO / N2O production (in words): decomposition at pH 7.4; for % HNO: donor 0.1 mM, 37° C., PBS pH 7.4, yield relative to Angeli's salt by N2O headspace analysis, SEM ±5%, n = 3
# Protocol: Nitrous oxide is produced via the dimerization and dehydration of HNO, and is the most common marker for HNO production (Fukuto, J. M. et al., Chem. Res. Toxicol. 2005, 18, 790-801).
# Gas chromatography was performed on a Varian CP-3800 instrument equipped with a 1041 manual injector, electron capture detector, and a 25 m 5 Å molecular sieve capillary column. Grade 5.0 nitrogen was used as both the carrier (8 mL/min) and the make-up (22 mL/min) gas. The injector oven and the detector oven were kept at 200° C. and 300° C., respectively. All nitrous oxide analyses were performed with the column oven held constant at 150° C. All gas injections were made using a 100 μL gastight syringe with a sample-lock. Samples were prepared in 15 mL amber headspace vials with volumes pre-measured for sample uniformity (actual vial volume ranges from 15.19-15.20 mL). Vials were charged with 5 mL of PBS buffer containing DTPA, purged with argon, and sealed with a rubber septum. The vials were equilibrated for at least 10 minutes at 37° C. in a dry block heater. A 10 mM stock solution of Angeli's salt (AS) was prepared in 10 mM sodium hydroxide, and HNO donors 1a-4a, 6a (10 mM) were prepared in acetonitrile or methanol and used immediately after preparation. From these stock solutions, 50 μL was introduced into individual thermally-equilibrated headspace vials using a gastight syringe, yielding final substrate concentrations of 0.1 mM. Substrates were then incubated long enough to ensure complete decomposition and equilibration of N2O with the headspace. The headspace (60 μL) was then sampled and injected five successive times using a gastight syringe with a sample lock. This was repeated for n≧3 vials per donor. The nitrous oxide yield was averaged and reported relative to the standard, Angeli's salt. For chemical trapping of HNO, glutathione (100 μL of 10 mM in PBS) was added prior to HNO donor addition to give a final glutathione concentration of 0.2 mM, and headspace sampling for N2O was analogously performed as stated above.
# [3] = comparison value; cited from earlier work
# [4] = Decomposition kinetics monitored by UV-Vis spectroscopy; type: physicochemical
# Protocol: NMR spectra were obtained on a Bruker Avance 400 MHz FT-NMR spectrometer. […] High-resolution mass spectra were obtained on a VG Analytical VG70SE magnetic sector mass spectrometer operating in fast atom bombardment (FAB) mode. […] Phosphate-buffered saline (PBS) solutions (0.1 M) were prepared with 140 mM NaCl and 3 mM KCl, with 100 μM diethylenetriaminepentaacetic acid (DTPA), adjusted to pH 7.4.
# Sprague-Dawley rats = experiment: Acute cardiovascular effects, pressure-volume (PV) loop analysis in anesthetized rats; type: in vivo, rat; details: IV infusion 100 μg/kg/min, 5 rats
# Protocol: The acute cardiovascular effects of compounds 4a and 6a, when administered intravenously to Sprague-Dawley rats at an infusion rate of 100 μg/kg/min, were examined by means of pressure-volume (PV) curve (loops) analysis. PV families/relationships were generated via pre-load variation and hemodynamic indices were compared to baseline values. Each test article was administered to 5 rats.
# Rats were intraperitoneally (IP) anesthetized to effect with pentobarbital (˜50 mg/kg), shaved and positioned in dorsal recumbence, endotracheally intubated and ventilated […], ˜2.5 mL tidal volume with 95% O2/5% CO2) with an adjustable small animal ventilator (Harvard Apparatus). Anesthesia was maintained with a continuous pentobarbital infusion (to effect, ˜3 to 5 mg/kg/h, IV) until completion of the experiment via an indwelling catheter placed in a femoral vein. Subsequently, transthoracic needle electrodes forming a single-lead ECG were placed. For LV mechano-energetic evaluation, the right carotid artery was isolated, dissected free from the surrounding tissue, and cannulated with a 2F high-fidelity conductance/micromanometer catheter (Millar Instruments). This catheter was advanced retrograde across the aortic valve and into the LV chamber in order to simultaneously determine left-ventricular pressure and volume (via conductivity). […] Meanwhile, in order to record arterial pressures, a 2F high-fidelity micromanometer catheter (Millar Instruments) was inserted into a femoral artery and advanced towards the abdominal aorta. Finally, an in-dwelling catheter was placed into the jugular vein for administration of test article.
# Following collection of baseline hemodynamic data, infusion of test article was initiated at an infusion rate of 100 μg/kg/min; at 10 μL/min. Pressure-volume analyses were performed again approximately 30 min and 45 min after the initiation of the dose.
# The resulting left-ventricular pressure and volume data was analyzed offline (IOX/ECG Auto; EMKA Technologies) in order to generate relationships representing the contractile and energetic state of the myocardium. Systolic (SAP), diastolic (DAP), and mean (MAP) arterial pressures were collected. Left-ventricular mechanical and/or geometrical indices were obtained from the pressure (ESP, EDP, dP/dt max/min, time-constant of relaxation—tau [based on mono-exponential decay with non-zero asymptote]) and volume (ESV, EDV, SV) signal. In addition, the following measurements were derived from left-ventricular pressure-volume data (PV loops) generated during brief periods of preload reduction: • Pressure volume area (PVA) and stroke work (SW). • End-systolic (ESPVR) and end-diastolic (EDPVR) pressure volume relationships. • End systolic pressure and stroke volume relationship (Arterial Elastance, Ea).
# Data are presented as means with standard errors (mean±SEM) in Table 6.
# [5] = Decomposition kinetics monitored by UV-Vis spectroscopy; type: physicochemical; details: PBS, pH 7.4, Condition A: pH 7.4, 37° C., 0.1M PBS, 100 μL DTPA, air (UV/Vis)
# [6] = PBS, pH 7.4, Condition B: pH 7.4, 37° C., 0.25M PBS, no chelator, air (1H NMR)
# [7] = PBS, pH 7.4, Condition G: pH 7.4, 37° C., 0.25M PBS, 100 μL DTPA, air (1H NMR)
compound,measurement,setting,value
"CC1=NN(C)C(=O)C1(C)NO (centres unmarked) [Compound 9a, 4-(N-hydroxylamine)-4-methyl-N-methyl-5-methyl-pyrazolone]",% remains after 48 h,"[1]; Condition F: pH 7.4, 37° C., 0.25M PBS, no chelator, nitrogen (1H NMR)",84% remains after 48
same,half-life,[1]; [6],48 h
"CC1(C)OC(=O)C(C)(NO)C(=O)O1 [Compound 1a, 5-(N-hydroxylamine)-5-methyl-Meldrum's acid hydrochloride monohydrate]",HNO / N2O production (in words),[2],only trace amounts of N2O
same,% HNO,[2],2%
"CC1=NN(c2ccccc2)C(=O)C1(C)NO (centres unmarked) [Compound 8a, 4-(N-hydroxylamine)-4-methyl-N-phenyl-5-methyl-pyrazolone]",half-life,[1]; [6],16 h
same,half-life,"[1]; PBS, pH 7.4, Condition C: pH 7.4, 37° C., 0.25M PBS, 100 μL DTPA, BME (20 equiv.), argon (1H NMR)",28 h
same,half-life,"[1]; PBS, pH 7.4, Condition D: pH 7.4, 37° C., 0.25M PBS, 100 μL DTPA, GSH (2 equiv.), argon (1H NMR)",50 h
same,half-life,"[1]; PBS, pH 7.4, Condition E: pH 7.4, 37° C., 0.25M PBS, 100 μL DTPA, 12b (1 equiv.), air (1H NMR)",100 h
"CC1=NN(c2ccccc2Cl)C(=O)C1(C)NO (centres unmarked) [Compound 11a, 4-(N-hydroxylamine)-4-methyl-N-(2-chlorophenyl)-5-methyl-pyrazolone]",half-life,[1]; [7],120 h
CC1=NN(c2ccccc2)C(=O)C1 [edaravone],pKa,[3],7
"CCC1(NO)C(=O)N(C)C(=O)N(C)C1=O [Compound 3a, 5-(N-hydroxylamine)-5-ethyl-N,N-dimethylbarbituric acid hydrochloride]",HNO / N2O production (in words),[2],produced little HNO
same,% HNO,[2],2%
"CO/N=C(\C)C1(NO)C(=O)N(C)C(=O)N(C)C1=O [Compound 4a, 5-(N-hydroxylamine)-5-(acetyl-O-methoxyoxime)-N,N-dimethylbarbituric acid]",decomposition rate constant k (single exponential fit),"[1]; 4a to 4b, PBS, pH 7.4, room temperature",0.0024 s⁻¹
same,half-life,"[4]; buffer, pH 4, pH 4.0 and room temperature, read-out: half-life (converted)",~24 h
same,half-life,"[4]; buffer, pH 7.4, footnote c not given, pH 7.4, 37° C., read-out: t1/2",0.0117 h
same,half-life,"[4]; buffer, pH 7.4, pH 7.4 and 37° C., read-out: half-life (converted)",~0.0167 h
same,pH near which the decomposition rate sharply increases,"[4]; decomposition rate as a function of pH at 25° C., UV-Vis",~8
same,HNO / N2O production (in words),[2],high yield of N2O
same,% HNO,[2],110%
same,Mean Blood Pressure,Sprague-Dawley rats; baseline 124 (4a) / 138 (6a),71 mmHg
same,Stroke Volume,"Sprague-Dawley rats; mean, baseline 1 (4a) / 2.2 (6a)",1.2 relative volume units
same,End Diastolic Pressure Volume Relationship,"Sprague-Dawley rats; mean, baseline 1.7 (4a) / 1.8 (6a)",1.6
same,End Diastolic Pressure,"Sprague-Dawley rats; mean, baseline 4.7 (4a) / 4.4 (6a)",3.4 mmHg
same,Tau,"Sprague-Dawley rats; mean, baseline 8.5 (4a) / 8.7 (6a)",7.8 ms
same,Arterial Elastance,"Sprague-Dawley rats; mean, baseline 9.2 (4a) / 7.4 (6a)",4.8
same,End Diastolic Volume,"Sprague-Dawley rats; mean, baseline 14.6 (4a) / 19.2 (6a)",15 relative volume units
same,End Systolic Pressure Volume Relationship,"Sprague-Dawley rats; mean, baseline 28.1 (4a) / 23.7 (6a)",34.1
same,Pre-Load Recruitable Stroke Work,"Sprague-Dawley rats; mean, baseline 37.6 (4a) / 42.8 (6a)",54.3
same,Diastolic Blood Pressure,"Sprague-Dawley rats; mean, baseline 109 (4a) / 121 (6a)",62 mmHg
same,Stroke Work,"Sprague-Dawley rats; mean, baseline 112 (4a) / 227 (6a)",74 relative volume units × mmHg
same,End Systolic Pressure,"Sprague-Dawley rats; mean, baseline 134 (4a) / 141 (6a)",71 mmHg
same,Systolic Blood Pressure,"Sprague-Dawley rats; mean, baseline 147 (4a) / 160 (6a)",85 mmHg
same,Pressure Volume Area,"Sprague-Dawley rats; mean, baseline 343 (4a) / 590 (6a)",151
same,Heart Rate,"Sprague-Dawley rats; mean, baseline 365 (4a) / 340 (6a)","350 bp, m"
same,Left Ventricular +dP/dt,"Sprague-Dawley rats; mean, baseline 6392 (4a) / 7689 (6a)",3518 mmHg/s
same,Left Ventricular −dP/dt,"Sprague-Dawley rats; mean, baseline −7585 (4a) / −8257 (6a)",−4096 mmHg/s
"CO/N=C(\C)C1(NO)C(=O)OC(C)(C)OC1=O [Compound 2a, 5-(N-hydroxylamine)-5-(acetyl-O-methoxyoxime)-Meldrum's acid]",half-life,"[4]; PBS, pH 7.4, footnote c not given, pH 7.4, 37° C., read-out: t1/2",0.015 h
same,HNO / N2O production (in words),[2],enhanced HNO yield
same,% HNO,[2],25%
CC1(C)OC(=O)CC(=O)O1 [Meldrum's acid],pKa,[3],4.8
"CN1C(=O)CC(=O)N(C)C1=O [N,N-dimethyl barbituric acid]",pKa,[3],4.7
"CC1=NNC(=O)C1(C)NO (centres unmarked) [Compound 12a, 4-(N-hydroxylamine)-4-methyl-5-methyl-pyrazolone]",% remains after 7 d,"[1]; Condition G: pH 7.4, 37° C., 0.25M PBS, 100 μL DTPA, air (1H NMR)",70% remains after 7 d
"CC1=NN(c2ccc(Cl)cc2)C(=O)C1(C)NO (centres unmarked) [Compound 10a, 4-(N-hydroxylamine)-4-methyl-N-(4-chlorophenyl)-5-methyl-pyrazolone]",half-life,[1]; [7],84 h
"CO/N=C(\C)C1(NO)C(=O)N(C)N=C1C (centres unmarked) [Compound 7a, 4-(N-hydroxylamine)-4-(acetyl-O-methoxyoxime)-N-methyl-5-methyl-pyrazolone]",half-life,[5],0.383 h
